For 36 compounds, melting point results are on record in a melting point compilation (Tetko et al.; mined from patent text by program, amines drawn as free bases though some values may be those of a salt).

Compound `N#CCOc1cccc2c1c1cccc3c1n2C(c1ccccc1)CO3` (stereo unspecified) yielded a melting point of 61 °C.

Compound `OCc1ccc2c(c1)COC2c1ccc(F)cc1` (stereo unspecified) showed a melting point of 101 to 104 °C.

With `COc1ccccc1C1CCC(=O)C=C1C(=O)O` (racemic), the melting point amounted to 177 °C.

`N=C(N)NC(=O)Cn1c(Cc2cccs2)ccc1-c1ccccc1`: the melting point lay in the range of 99 to 120 °C.

`O=C(c1ccccc1)C1C=C(Cl)C=CC1(F)NCCO` (stereo unspecified) returned a melting point of 96 to 101 °C.

In turn, `Cc1nc(N2CCCC(CCc3ccccc3)C2=O)sc1C(=O)NCc1ccccc1` (stereo unspecified) registered a melting point of 124 to 126 °C.

`CCCCCCCNC(=O)Nc1ccccc1C(=O)NC1CCN(C(c2ccccc2)c2ccccc2)CC1` had a melting point of 182 °C.

With `CC(C)(C)C(=O)Nc1ccc2oc3c(c2c1)CCCCCC3`, the melting point was in the range of 189 to 190 °C.

`COc1ccc(C=C2NC(=O)NC2=O)cc1OC1CCCC1` returned a melting point of 220 to 222 °C.

`CCCCOc1nc(N)nc2c1ncn2C1C=CC(CO)C1` (stereo unspecified) gave a melting point of 122 to 123 °C.

On to `CCOc1c(OC)ccc2nc3[nH]cnc(=O)c3cc12`, for which the melting point was in the range of 348 to 349 °C.

Consider `CC(CC(=O)NCCc1ccc(C(=O)O)cc1)(c1ccccc1)c1ccccc1`, for which the melting point came to 211 °C.

In turn, `CCCC(CO)(CO)CO` showed a melting point of 100 to 101 °C.

Take `CN1C(=O)CC[C@]2(C)c3ccc(C(=O)c4ccccc4)cc3CC[C@@H]12`: the melting point was 116 °C.

Regarding `O=C(Nc1ccc(C(=O)N2CCCCc3sc(Cl)cc32)cc1)c1ccc(Cl)cc1Cl`, the melting point was in the range of 187 to 189 °C.

For `COc1cc2c(cc1OC)CCC(C(=O)O)=C2`, the melting point fell in the range of 191 to 194 °C.

As to `C[C@@H]1CCN(C(=O)C(C)(C)C)[C@@H](C(=O)NOCc2ccccc2)C1`, the melting point was 107 to 108 °C.

`CC(=O)NNC(=O)c1cc2cccc(NS(=O)(=O)c3cccs3)c2[nH]1` came in with a melting point of 254 to 256 °C.

`O=C1Nc2ncccc2N2CCNCC12` (stereo unspecified): the melting point was 315 to 319 °C.

Take `CC=CC1=C(O)C(=O)c2ccccc2C1=O`: the melting point was 133 to 134 °C.

`CCCC(NC(=O)Nc1cccc(C)c1)C(=S)N(CC(=O)OC(C)(C)C)c1ccccc1` (racemic): the melting point amounted to 142 °C.

The compound `COc1ccc(C)cc1NC(=O)Nc1ccc(N2CCN(C(=O)Nc3ccc(N(C)CCO)cc3C)CC2)cc1` registered a melting point of 208 to 210 °C.

Turning to `CN1Cc2c(-c3noc(CNCc4ccccc4)n3)ncn2-c2ccccc2C1=O`, the melting point is 88 to 92 °C.

As for `Cc1nc(N2CCCN(CC3CC3)C2=O)sc1C(=O)NCc1cccnc1`, the melting point was 142 to 145 °C.

In the case of `COc1nc(N)nc2c1CCC2`, the melting point lay in the range of 134 to 135 °C.

The compound `CCNC(=O)ON=C1CCOc2ccccc21` displayed a melting point of 110 to 111 °C.

`O=S(=O)(Cl)c1nc2ccccn2n1` yielded a melting point of 116 to 118 °C.

In the case of `Cc1ccc(S(=O)(=O)ON=C2CCCc3occ(C(=O)O)c32)cc1`, the melting point lay within 155 to 165 °C.

`CC(C(=O)O)c1ccc2c(c1)CCc1ccccc1C2=O` (stereo unspecified) showed a melting point of 122 °C.

Turning to `O=C(Cn1c(-c2ccc(Cl)cc2)nc2cccnc21)N1CCOCC1`, the melting point is 213 to 216 °C.

In the case of `Cc1ccc(C#CCOCCn2cnc3c(N)nc4ccccc4c32)cc1C`, the melting point fell in the range of 214 to 216 °C.

Regarding `Nc1nc(NC2CCC(CO)C2)c2ncn(C3C=CC(CO)C3)c2n1` (stereo unspecified), the melting point was 177 to 180 °C.

With `C=C1CCCN(C(=O)c2ccc(NC(=O)c3ccccc3C)cc2)c2ccccc21`, the melting point lay within 216 to 217 °C.

In the case of `Nc1cc2nc(C(=O)O)c(=O)[nH]c2cc1[N+](=O)[O-]`, the melting point turned out to be 300 °C.

For the compound `Cn1cc(-n2c(-c3cccc(F)c3)nc3c(Cl)ncnc32)ccc1=O`, the melting point came to 219 °C.

Regarding `NC(=O)c1ccc(-c2ccc3ncn(Cc4ccc5ncccc5c4)c3n2)cc1Cl`, the melting point was 212 to 214 °C.

By melting point is commonly meant the temperature of the solid-liquid transition.
